Source: patent US10669283B2, “Compound and pharmacologically acceptable salt thereof” (MEIJI SEIKA PHARMA CO., LTD., priority 2016, dated 2020)
Like-named read-outs stand apart in the source and are kept apart here.

Columns and labels:
[1] = Hepatic metabolic stability (rat liver microsome method); assay type: in vitro ADME; details: rat liver microsomes 0.5 mg/mL, test substance 1 μM, NADPH 1 mM, 37° C., 30 minutes
Method: Metabolic stability in rat liver microsomes was evaluated by the following method. In 100 mM of potassium phosphate buffer solution (pH 7.4), liver microsomes (concentration at reaction: 0.5 mg/mL) and the test substance (concentration at reaction: 1 μM) were preincubated at 37° C. Five minutes later, 100 mM of potassium phosphate buffer (pH 7.4) solution of NADPH (concentration at reaction: 1 mM) was mixed thereto to start the reaction. After a predetermined time passed, acetonitrile was mixed to the reaction mixture to stop the reaction. Here, the reaction time was 0 and 30 minutes, and drug concentration measurement was performed for each time period using LC-MS. The % remaining value of the test compound was calculated from the value for 0 minutes and the value for 30 minutes, using the calculation formula below: % Remaining=(Value for 30 Minutes/Value for 0 Minutes)×100
The results of measuring the rat liver microsome metabolic Stability (% remaining for 30-minute reaction) for the test compound by the above method were evaluated in accordance with the following evaluated basis; A: a % remaining rate of 75% or more, B: 60% or more and less than 75%, C: 45% or more and less than 60%, and D: less than 45%.

PDE4 = PDE4 inhibition, scintillation proximity assay (SPA); assay type: biochemical
How it was run: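 Compound pre-diluted 1:10 in 50 mM Tris-HCl pH 7.4, 8.3 mM MgCl2, 1.7 mM EGTA, 3 mg/mL BSA, then incubated with PDE4 and [2,8-3H]-cAMP for 120 min at room temperature. Product captured on ZnSO4-containing YSi-SPA beads for 15 min; radioactivity counted against no-enzyme blank and DMSO control.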

[2] = scintillation proximity assay, class symbols, read-out: PDE4 Inhibitory Activity

Structure (SMILES): CC(O)C(F)(F)Oc1ccc(-c2nccs2)c2oc(N3CC4CC(C3)N4)nc12 (single isomer, unassigned) [Example 252, 1-((2-(3,6-Diazabicyclo[3.1.1]heptan-3-yl)-7-(thiazol-2-yl)benzo[d]oxazol-4-yl)oxy)-1,1-difluoropropan-2-ol]
- Residual ratio (% remaining for 30-minute reaction) [1]: A (a % remaining rate of 75% or more)
- IC50 (PDE4; scintillation proximity assay (SPA), evaluated as classes A, B, C, read-out: PDE4 Inhibitory Activity (concentration for the inhibition rate of 50%)): < 0.1 µM

Structure (SMILES): [O-][S+](CCO)c1ccc(-c2nccs2)c2oc(N3CC4CC(C3)N4)nc12 (stereo not shown) [Example 349, 2-((2-(3,6-diazabicyclo[3.1.1]heptan-3-yl)-7-(thiazol-2-yl)benzo [d]oxazol-4-yl)sulfinyl)ethan-1-ol]
- Residual ratio (% remaining for 30-minute reaction) [1]: A (a % remaining rate of 75% or more)
- IC50 (PDE4; [2]): < 0.1 µM

Structure (SMILES): FC(F)(F)c1ccc(Oc2cc(-c3nccs3)c3oc(N4CC5CC(C4)N5)nc3c2)nc1 [Example 413, 2-(3,6-diazabicyclo [3.1.1]heptan-3-yl)-7-(thiazol-2-yl)-5-((5-(trifluoro-methyl)pyridin-2-yl)oxy) benzo[d] oxazole]
- Residual ratio (% remaining for 30-minute reaction) [1]: A (a % remaining rate of 75% or more)
- IC50 (PDE4; [2]): < 0.1 µM

Structure (SMILES): CC(C)(O)C(F)(F)Oc1ccc(-c2ccc(F)cn2)c2oc(N3CC4CCC(C3)N4)nc12 [Example 332, 1-((2-(3,8-diazabicyclo [3.2.1]octan-3-yl)-7-(5-fluoropyridin-2-yl)benzo[d]oxazol-4-yl)oxy)-1,1-difluoro-2-methylpropan-2-ol]
- Residual ratio (% remaining for 30-minute reaction) [1]: A (a % remaining rate of 75% or more)
- IC50 (PDE4; [2]): < 0.1 µM

Structure (SMILES): COCC(F)(F)Oc1ccc(-c2nccs2)c2oc(N3CC4CC(C3)N4)nc12 [Example 392, 2-(3,6-diazabicyclo[3.1.1]heptan-3-yl)-4-(1,1-difluoro-2-methoxyethoxy)-7-(thiazol-2-yl) benzo[d]oxazole]
- Residual ratio (% remaining for 30-minute reaction) [1]: B (60% or more and less than 75%)
- IC50 (PDE4; [2]): < 0.1 µM

Structure (SMILES): O=S(=O)(CCO)c1ccc(-c2nccs2)c2oc(N3CC4CC(C3)N4)nc12 [Example 350, 2-((2-(3,6-diazabicyclo[3.1.1]heptan-3-yl)-7-(thiazol-2-yl)benzo [d]oxazol-4-yl)sulfonyl)ethan-1-ol]
- Residual ratio (% remaining for 30-minute reaction) [1]: A (a % remaining rate of 75% or more)
- IC50 (PDE4; [2]): < 0.1 µM

Structure (SMILES): O=C(N1CC(O)C1)C(F)(F)Oc1ccc(-c2nccs2)c2oc(N3CC4CC(C3)N4)nc12 [Example 412, 2-((2-(3,6-diazabicyclo [3.1.1]heptan-3-yl)-7-(thiazol-2-yl)benzo[d]oxazol-4-yl)oxy)-2,2-difluoro-1-(3-hydroxy-azetidin-1-yl)ethan-1-one]
- Residual ratio (% remaining for 30-minute reaction) [1]: A (a % remaining rate of 75% or more)
- IC50 (PDE4; [2]): < 0.1 µM

Structure (SMILES): c1cnc(Oc2ccc(-c3nccs3)c3oc(N4CC5CC(C4)N5)nc23)nc1 [Example 338, 2-(3,6-diazabicyclo [3.1.1]heptan-3-yl)-4-(pyrimidin-2-yloxy)-7-(thiazol-2-yl)benzo[d]oxazole]
- Residual ratio (% remaining for 30-minute reaction) [1]: A (a % remaining rate of 75% or more)
- IC50 (PDE4; [2]): < 0.1 µM

Structure (SMILES): OC1CCN(c2ccc(-c3nccs3)c3oc(N4CC5CC(C4)N5)nc23)CC1 [Example 397, 1-(2-(3,6-diazabicyclo[3.1.1]heptan-3-yl)-7-(thiazol-2-yl)benzo [d]oxazol-4-yl) piperidin-4-ol]
- Residual ratio (% remaining for 30-minute reaction) [1]: A (a % remaining rate of 75% or more)
- IC50 (PDE4; [2]): < 0.1 µM

Structure (SMILES): O=C(c1ccc(-c2nccs2)c2oc(N3CC4CC(C3)N4)nc12)N1CCOCC1 [Example 359, (2-(3,6-diazabicyclo [3.1.1]heptan-3-yl)-7-(thiazol-2-yl)benzo[d]oxazol-4-yl) (morpholino) methanone]
- Residual ratio (% remaining for 30-minute reaction) [1]: A (a % remaining rate of 75% or more)
- IC50 (PDE4; [2]): 0.1 to 1 µM

Structure (SMILES): c1ccc(Oc2ccc(-c3nccs3)c3oc(N4CC5CC(C4)N5)nc23)nc1 [Example 337, 2-(3,6-diazabicyclo [3.1.1]heptan-3-yl)-4-(pyridin-2-yloxy)-7-(thiazol-2-yl)benzo[d] oxazole]
- Residual ratio (% remaining for 30-minute reaction) [1]: B (60% or more and less than 75%)
- IC50 (PDE4; [2]): < 0.1 µM
